Source: US11160871B2, “SSTR-targeted conjugates and particles and formulations thereof” (TARVEDA THERAPEUTICS, INC., priority 2015, dated 2021)
Where two headings read alike, the source gives them in different places. Starred links: 1 amine or outer side, 2 acyl side, 3 side chain; linkers in the order of their positions; H or OH if unused. Positions of bridges follow the written chain, without caps; N, C: chain ends. Non-standard residues stand in square brackets, D forms with d. Residues, ends and D or L forms follow the SMILES beside them. *: point of attachment. X1 = COc1cc2cc(c1Cl)N(C)C(=O)C[C@H](OC(=O)[C@H](C)N(C)C(=O)CCS*)[C@]1(C)O[C@H]1[C@H](C)[C@@H]1C[C@@](O)(NC(=O)O1)[C@H](OC)/C=C/C=C(\C)C2; N(3-sulfanylpropyl)dPhe = O=C([C@@H](Cc1ccccc1)N(CCCS[*:3])[*:1])[*:2]

How the values were obtained:
[1] = test system: NCI-H69 SCLC tumors; assay: H69 tumor DM-1 levels by LC/MS-MS; type: in vivo, mice; conditions: 1 mg/kg; 24 hour time point
Method: (§1) To examine the ability of conjugates of the present invention to accumulate in tumors, a murine cancer model was used. All mice were treated in accordance with the OLAW Public Health Service Policy on Human Care and Use of Laboratory Animals and the ILAR Guide for the Care and Use of Laboratory Animals. All in vivo studies were conducted following the protocols approved by the Blend Therapeutics Institutional Animal Care and Use Committee. Animals were inoculated with 2.5×10^6 NCI-H69 SCLC (small cell lung cancer) cells in 1:1 RPMI 1640 (Invitrogen, Carlsbad, Calif.)/Matrigel® (BD Biosciences, San Jose, Calif.) via subcutaneous injection to the right flank. Tumors were allowed to reach an approximate volume of ˜500 mm3. Animals were then randomized into treatment groups of 3 animals per time point and were dosed at 1 mg/kg (10% propylene glycol in water for injection for free conjugates, or 10% sucrose for nanoparticles), or 0.4 mg/kg for DM-1 (10% propylene glycol in water for injection). The 24 hour time point was used as a benchmark across conjugates.
(§2) Tumor DM-1 levels were determined by liquid chromatography mass spectrometry (LC/MS-MS). Four volumes of 5 mM 6-maleimidohexanoic acid to 1 part tumor v/w was added and homogenized for about 10-15 seconds with a handheld homogenizer. 10 μL of 500 mM Tris(2-carboxyethyl)phosphine was added to 100 uL of tumor homogenate, mixed well and incubated at room temperature for about 5-15 min. 200-300 uL of acetonitrile was used to precipitate proteins in tumor homogenate, samples were centrifuged for 5 min, and supernatant was injected onto LC/MS-MS system for DM-1 analysis.

[2] = test system: NCI-H524 human small cell lung cancer cells; assay: cells; type: cell-based
Method: Conjugates of the present invention were assessed in an in vitro assay evaluating inhibition of cell proliferation. NCI-H524 (ATCC) human small cell lung cancer cells were plated in 96 well, V-bottomed plates (Costar) at a concentration of 5,000 cells/well. 24 hours later, cells were treated with either conjugate for 2 hours and further incubated 70 hours, or for octreotide competition experiments, treated with 100 μM octreotide for 30 min, and then treated with conjugate for 2 hours, and further incubated for 70 hours. Conjugate starting dose was 20 μM and three fold serial dilutions were done for a total of ten points. After 2 hours of treatment, cells were spun down, the drug containing media was removed, and fresh complete medium was added and used to resuspend the cells, which were spun again. After removal of the wash media, the cells were resuspended in complete medium, and then transferred into white walled, flat bottomed 96 well plates. […] Proliferation was measured using CellTiter Glo reagent using the standard protocol (Promega) and a Glomax multi+ detection system (Promega). Percent proliferation inhibition was calculated using the following formula: % inhibition=(control−treatment)/control*100. Control is defined as vehicle alone. IC50 curves were generated using the nonlinear regression analysis (four parameter) with GraphPad Prism 6.

[3] = H69 tumor DM-1 levels by LC/MS-MS; type: in vivo, mice; conditions: mouse, tumor (NCI-H69 SCLC xenograft); 0.4 mg/kg for DM-1; 24 hour time point
Method: as §1, §2

[4] = Single dose exploratory toxicity study; type: in vivo, SD female rat; conditions: 0.4 mg/kg
Method: Single dose exploratory toxicity studies in SD female rat (dose 0.5 mg/kg to 1.5 mg/kg) for 7-10 days were carried out. Clinical observations, body weight, clinical blood chemistry, histopathology, and complete blood counts were assessed. In the 10-day study, DM1 (0.4 mg/kg) was compared to Conjugate 57 at an equivalent dose of DM1 (1.0 mg/kg of conjugate) and at a 50% higher dose (1.5 mg/kg of conjugate).
Decreased white blood cell (WBC) count is a known dose limiting toxicity of DM1. WBC count was tracked in all groups.
Liver toxicity is also a know dose limiting toxicity of DM1. Alanine transaminase (ALT) and aspartate aminotransferase (AST) are markers of liver toxicity and were measured in all groups.

[5] = biological target: SSTR1 (Homo sapiens, UniProt P30872); conditions: read-out: Octreoscan Ki; cited from earlier work
[6] = biological target: SSTR2 (Homo sapiens, UniProt P30874); set-up: expressed in transfected cells; conditions: read-out: Octreoscan Ki; cited from earlier work
[7] = biological target: SSTR5 (Homo sapiens, UniProt P35346); conditions: read-out: Octreoscan Ki; cited from earlier work
[8] = biological target: SSTR3 (Homo sapiens, UniProt P32745); conditions: read-out: Octreoscan Ki; cited from earlier work
[9] = biological target: SSTR4 (Homo sapiens, UniProt P31391); conditions: read-out: Octreoscan Ki; cited from earlier work
Sequence of SSTR4 (P31391 whole entry): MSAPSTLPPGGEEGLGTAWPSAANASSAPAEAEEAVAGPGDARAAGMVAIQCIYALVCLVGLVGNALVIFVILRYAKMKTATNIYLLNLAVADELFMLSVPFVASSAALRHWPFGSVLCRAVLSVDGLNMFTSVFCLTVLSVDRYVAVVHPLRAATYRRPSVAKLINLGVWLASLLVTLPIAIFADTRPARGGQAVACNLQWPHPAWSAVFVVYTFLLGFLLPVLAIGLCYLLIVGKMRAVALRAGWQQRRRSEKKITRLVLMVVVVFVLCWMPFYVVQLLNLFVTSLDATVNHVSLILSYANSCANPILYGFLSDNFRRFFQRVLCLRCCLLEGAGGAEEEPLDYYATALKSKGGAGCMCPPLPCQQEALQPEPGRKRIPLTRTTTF

Sequence of SSTR1 (P30872 whole entry): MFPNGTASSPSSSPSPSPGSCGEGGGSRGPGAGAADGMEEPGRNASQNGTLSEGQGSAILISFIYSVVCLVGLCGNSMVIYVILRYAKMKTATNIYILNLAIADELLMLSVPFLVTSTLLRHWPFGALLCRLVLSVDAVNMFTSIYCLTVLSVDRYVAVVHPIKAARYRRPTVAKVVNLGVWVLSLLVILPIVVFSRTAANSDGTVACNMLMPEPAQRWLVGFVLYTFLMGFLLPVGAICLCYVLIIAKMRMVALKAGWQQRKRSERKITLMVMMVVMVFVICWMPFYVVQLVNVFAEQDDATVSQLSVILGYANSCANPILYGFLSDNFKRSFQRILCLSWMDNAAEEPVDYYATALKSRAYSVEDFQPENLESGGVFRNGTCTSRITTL
Sequence of SSTR2 (P30874 whole entry): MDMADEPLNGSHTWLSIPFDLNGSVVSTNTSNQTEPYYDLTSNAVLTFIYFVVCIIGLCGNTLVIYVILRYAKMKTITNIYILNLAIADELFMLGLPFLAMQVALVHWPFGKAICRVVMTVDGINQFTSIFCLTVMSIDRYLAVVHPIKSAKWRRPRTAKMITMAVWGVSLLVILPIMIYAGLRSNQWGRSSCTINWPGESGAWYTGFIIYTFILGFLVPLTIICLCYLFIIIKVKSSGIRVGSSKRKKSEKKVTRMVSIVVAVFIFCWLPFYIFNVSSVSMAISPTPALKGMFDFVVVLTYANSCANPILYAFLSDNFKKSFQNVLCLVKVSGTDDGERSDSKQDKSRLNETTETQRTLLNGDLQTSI
Sequence of SSTR3 (P32745 whole entry): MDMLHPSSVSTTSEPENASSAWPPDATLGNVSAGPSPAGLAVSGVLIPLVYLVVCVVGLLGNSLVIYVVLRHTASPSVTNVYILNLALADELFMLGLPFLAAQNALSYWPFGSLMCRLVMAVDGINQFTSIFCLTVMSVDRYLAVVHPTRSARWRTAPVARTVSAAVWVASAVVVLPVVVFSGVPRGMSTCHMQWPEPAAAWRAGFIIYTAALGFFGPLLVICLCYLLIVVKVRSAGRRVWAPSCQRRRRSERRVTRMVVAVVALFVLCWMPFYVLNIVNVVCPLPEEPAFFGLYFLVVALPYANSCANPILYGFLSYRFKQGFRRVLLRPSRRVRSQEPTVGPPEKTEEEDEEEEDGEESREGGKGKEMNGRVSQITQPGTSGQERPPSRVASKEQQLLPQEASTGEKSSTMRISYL
Sequence of SSTR5 (P35346 whole entry): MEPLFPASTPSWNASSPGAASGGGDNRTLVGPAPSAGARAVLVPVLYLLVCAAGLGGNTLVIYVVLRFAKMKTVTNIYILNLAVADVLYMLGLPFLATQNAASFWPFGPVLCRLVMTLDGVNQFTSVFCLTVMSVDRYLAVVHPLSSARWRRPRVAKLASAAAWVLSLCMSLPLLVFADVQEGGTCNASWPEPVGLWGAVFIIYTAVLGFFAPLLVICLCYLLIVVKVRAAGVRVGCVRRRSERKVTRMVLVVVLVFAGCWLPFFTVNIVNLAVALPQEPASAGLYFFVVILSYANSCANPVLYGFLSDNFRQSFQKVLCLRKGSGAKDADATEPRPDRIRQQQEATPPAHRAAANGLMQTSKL

COc1cc2cc(c1Cl)N(C)C(=O)C[C@H](OC(=O)[C@H](C)N(C)C(=O)CCSSC[C@H](NC(=O)CC[C@H]1C(=O)N[C@@H](Cc3ccc(O)cc3)C(=O)N[C@H](Cc3c[nH]c4ccccc34)C(=O)N[C@@H](CCCCN)C(=O)N[C@@H]([C@@H](C)O)C(=O)N[C@@H](Cc3ccccc3)C(=O)N1C)C(=O)NC(C)(C)CC(C)(C)C)[C@]1(C)O[C@H]1[C@H](C)[C@@H]1C[C@@](O)(NC(=O)O1)[C@H](OC)/C=C/C=C(\C)C2 [Conjugate 16]
H69 tumor DM-1 levels [1]: 96.4 nM

COc1cc2cc(c1Cl)N(C)C(=O)C[C@H](OC(=O)C(C)N(C)C(=O)CCSSCCC(=O)NCCCOCCOCCOCCCNC(=O)CC[C@H]1C(=O)N[C@@H](Cc3ccc(O)cc3)C(=O)N[C@H](Cc3c[nH]c4ccccc34)C(=O)N[C@@H](CCCCN)C(=O)N[C@@H]([C@@H](C)O)C(=O)N[C@@H](Cc3ccccc3)C(=O)N1C)[C@]1(C)O[C@H]1[C@H](C)[C@@H]1C[C@@](O)(NC(=O)O1)[C@H](OC)/C=C/C=C(\C)C2 (stereo partly drawn) [Conjugate 18]
H69 tumor DM-1 levels [1]: 86.3 nM
IC50 ([2]; 2 hours treatment, 70 hours further incubation, read-out: H524 IC50): 1480 nM
IC50 ([2]; read-out: H524 IC50+ 100 uM octreotide, 100 μM octreotide for 30 min before conjugate): 2160 nM

CCCCN(CCSSCCC(=O)N(C)[C@@H](C)C(=O)O[C@H]1CC(=O)N(C)c2cc(cc(OC)c2Cl)C/C(C)=C/C=C/[C@@H](OC)[C@@]2(O)C[C@H](OC(=O)N2)[C@@H](C)[C@@H]2O[C@@]12C)C(=O)CC[C@H]1C(=O)N[C@@H](Cc2ccc(O)cc2)C(=O)N[C@H](Cc2c[nH]c3ccccc23)C(=O)N[C@@H](CCCCN)C(=O)N[C@@H]([C@@H](C)O)C(=O)N[C@@H](Cc2ccccc2)C(=O)N1C [Conjugate 22]
H69 tumor DM-1 levels [1]: 145 nM

COc1cc2cc(c1Cl)N(C)C(=O)C[C@H](OC(=O)[C@H](C)N(C)C(=O)CCSSCCNC(=O)[C@@H](NC(=O)[C@@H]1CSSC[C@H](NC(=O)[C@H](N)Cc3ccccc3)C(=O)N[C@@H](Cc3ccc(O)cc3)C(=O)N[C@H](Cc3c[nH]c4ccccc34)C(=O)N[C@@H](CCCCN)C(=O)N[C@@H]([C@@H](C)O)C(=O)N1)[C@@H](C)O)[C@]1(C)O[C@H]1[C@H](C)[C@@H]1C[C@@](O)(NC(=O)O1)[C@H](OC)/C=C/C=C(\C)C2 [Conjugate 35]
H69 tumor DM-1 levels [1]: 23.2 nM

CCCCCCCCN[C@H](Cc1ccccc1)C(=O)N[C@H]1CSSC[C@@H](C(=O)N[C@H](C(=O)NCCSSCCC(=O)N(C)[C@@H](C)C(=O)O[C@H]2CC(=O)N(C)c3cc(cc(OC)c3Cl)C/C(C)=C/C=C/[C@@H](OC)[C@@]3(O)C[C@H](OC(=O)N3)[C@@H](C)[C@@H]3O[C@@]23C)[C@@H](C)O)NC(=O)[C@H]([C@@H](C)O)NC(=O)[C@H](CCCCN)NC(=O)[C@@H](Cc2c[nH]c3ccccc23)NC(=O)[C@H](Cc2ccc(O)cc2)NC1=O [Conjugate 55]
H69 tumor DM-1 levels [1]: 95.3 nM

COc1cc2cc(c1Cl)N(C)C(=O)C[C@H](OC(=O)[C@H](C)N(C)C(=O)CCSSCCCN[C@H](Cc1ccccc1)C(=O)N[C@H]1CSSC[C@@H](C(=O)N[C@H](CO)[C@@H](C)O)NC(=O)[C@H]([C@@H](C)O)NC(=O)[C@H](CCCCN)NC(=O)[C@@H](Cc3c[nH]c4ccccc34)NC(=O)[C@H](Cc3ccccc3)NC1=O)[C@]1(C)O[C@H]1[C@H](C)[C@@H]1C[C@@](O)(NC(=O)O1)[C@H](OC)/C=C/C=C(\C)C2 [Conjugate 76]
H69 tumor DM-1 levels [1]: 62.2 nM

COc1cc2cc(c1Cl)N(C)C(=O)C[C@H](OC(=O)[C@H](C)N(C)C(=O)CCSSCCCN[C@H](Cc1ccccc1)C(=O)N[C@H]1CSSC[C@@H](C(=O)N[C@@H](Cc3c[nH]c4ccccc34)C(N)=O)NC(=O)[C@H](C(C)C)NC(=O)[C@H](CCCCN)NC(=O)[C@@H](Cc3c[nH]c4ccccc34)NC(=O)[C@H](Cc3ccc(O)cc3)NC1=O)[C@]1(C)O[C@H]1[C@H](C)[C@@H]1C[C@@](O)(NC(=O)O1)[C@H](OC)/C=C/C=C(\C)C2 [Conjugate 78] (H-[N(3-sulfanylpropyl)dPhe](X1)CY[dW]KVCW-NH2; disulfide 2-7)
H69 tumor DM-1 levels [1]: 36.2 nM

COc1cc2cc(c1Cl)N(C)C(=O)C[C@H](OC(=O)[C@H](C)N(C)C(=O)CCSSCCCN[C@H](Cc1ccccc1)C(=O)N[C@H]1CSSC[C@@H](C(=O)N[C@H](C(=O)O)[C@@H](C)O)NC(=O)[C@H]([C@@H](C)O)NC(=O)[C@H](CCCCN)NC(=O)[C@@H](Cc3c[nH]c4ccccc34)NC(=O)[C@H](Cc3ccc(O)cc3)NC1=O)[C@]1(C)O[C@H]1[C@H](C)[C@@H]1C[C@@](O)(NC(=O)O1)[C@H](OC)/C=C/C=C(\C)C2 [Conjugate 80]
H69 tumor DM-1 levels [1]: 91.2 nM

COc1cc2cc(c1Cl)N(C)C(=O)C[C@H](OC(=O)[C@H](C)N(C)C(=O)CCSSCCOc1ccc(C[C@@H](N)C(=O)N[C@H]3CSSC[C@@H](C(=O)N[C@H](C(=O)O)[C@@H](C)O)NC(=O)[C@H]([C@@H](C)O)NC(=O)[C@H](CCCCN)NC(=O)[C@@H](Cc4c[nH]c5ccccc45)NC(=O)[C@H](Cc4ccc(O)cc4)NC3=O)cc1)[C@]1(C)O[C@H]1[C@H](C)[C@@H]1C[C@@](O)(NC(=O)O1)[C@H](OC)/C=C/C=C(\C)C2 [Conjugate 111]
H69 tumor DM-1 levels [1]: 82.6 nM

COc1cc2cc(c1Cl)N(C)C(=O)C[C@H](OC(=O)[C@H](C)N(C)C(=O)CCSSCCC(=O)NCc1ccc(C[C@@H](N)C(=O)N[C@H]3CSSC[C@@H](C(=O)N[C@H](C(=O)O)[C@@H](C)O)NC(=O)[C@H]([C@@H](C)O)NC(=O)[C@H](CCCCN)NC(=O)[C@@H](Cc4c[nH]c5ccccc45)NC(=O)[C@H](Cc4ccc(O)cc4)NC3=O)cc1)[C@]1(C)O[C@H]1[C@H](C)[C@@H]1C[C@@](O)(NC(=O)O1)[C@H](OC)/C=C/C=C(\C)C2 [Conjugate 115]
H69 tumor DM-1 levels [1]: 37.1 nM

COc1cc2cc(c1Cl)N(C)C(=O)C[C@H](OC(=O)[C@H](C)N(C)C(=O)CCS)C1(C)O[C@H]1[C@H](C)[C@@H]1C[C@@](O)(NC(=O)O1)[C@H](OC)/C=C/C=C(\C)C2 (stereo partly drawn) [DM-1, mertansine, reference compound]
concentration at 24 h [3]: 31.6 nM
AST and ALT [4]: dramatic increases in AST and ALT at day 5
Day 5 weight change (%) [4]: −18%
WBC count [4]: dramatic decreases in WBC count
clinical outcome [4]: had to be euthanized on day 5 because they were moribund
IC50 ([2]; Homo sapiens, NCI-H524, read-out: H524 IC50 (nM)): 90 nM
IC50 ([2]; Homo sapiens, NCI-H524, read-out: H524 IC50+ 100 uM octreotide (nM)): 90 nM

Indium-111 pentetreotide [Octreoscan]
Ki [5]: > 10 µM
Ki [6]: 0.022 µM
Ki [7]: 0.237 µM
Ki [8]: 0.182 µM
Ki [9]: > 1 µM
